Test results published in patent US20240287065A1, “COMPOUND AS CDK KINASE INHIBITOR AND USE THEREOF” (TYK MEDICINES (ZHENGZHOU) , INC., priority 2021, published 2024).
Read-outs that look alike come from different tables or passages of the source.

Tests used:
MCF-7-Palbo-R cells = assay: MCF-7-Palbo-R cell antiproliferative assay (BrdU ELISA); format: cell-based; details: for IC50: 72 hours, BrdU; for Bottom(%): bottom of inhibition curve; for Top(%): top of inhibition curve
Description: 1. Experimental Materials • MCF-7/palbo-R • EMEM medium (ATCC, 30-2003); DMEM/F12 medium (Gibco-1 1330-032) • Fetal bovine serum (cellmax-SA21 1.02) • DMSO (SIGMA, D2650) • BrdU ELISA cell proliferation assay kit (Roche, 11647229001) • ELISA (e.g. MD-SpectraMax ID5 or EnVision)
2. Experimental protocol • 1. Cell spreading • 1) Cells were counted, the concentration of cell suspension was adjusted • 2) The MCF7/Palbo-R cell suspension was seeded in 96-well plates at […] volume to make the number of cells per well is 4000-5000; • 3) Blank control group was added with 90 μl of culture medium; • 2. […] A 3-fold serial gradient dilution was performed with 0.1% DMSO medium for a total of 9 concentrations, and the concentrations of the compounds after dilution were as follows: • 10000 nM, 3333.33 nM, 1111.11 nM, 370.34 nM, 123.45 nM, 41.15 nM, 13.72 nM, 4.57 nM, and 1.52 nM. • b) After 72 hours of compound treatment. • 1) A 10 mM of Brdu stock solution was diluted with RPMI medium and added to a 96-well plate at 20 uL/well and shaken at 350 rpm for 10 minutes. • 2) The 96 well plate was placed back into the incubator for 1 or 2 hours. • 3) After the medium was removed from the 96-well plate, 200 ul/well of Fixation/Denaturation solution was added and incubated for 30 minutes at room temperature. • 4) The fixation solution was removed and 100 ul of peroxidase-coupled anti-Brdu antibody solution (antibody dilution prepared at 1:100 dilution) was added, • and incubated at 350 rpm for 1 hour at room temperature. • 6) The 96-well plate was washed three times with 300 ul/well of PBS. • 8) 100ul of peroxidase substrate solution was added and shaken at 350 rpm for about 10-20 minutes at room temperature, • until the DMSO-treated cell control wells turn a medium blue color. If a color is too dark, it will cause the absorbance value to out of the reading range. • 9) The reaction was terminated by the addition of 25 ul of 1 M sulfuric acid. Shake to ensure uniform color. • 10) The absorbance at 450 nm was recorded. • 3. Data analysis • The inhibition rate is calculated using the following equation:
IR (%)=(1−(RLU compound−RLU blank)/(RLU control−RLU blank))*100%.

CDK2/CycE1 = CDK2/CycE1 (Homo sapiens, UniProt P24941); assay: Enzyme activity test; format: biochemical;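 note: values come from the source column headed CDK2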
How it was run: (§1)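 Mobility-shift read-out on EZ Reader after a 150 min room-temperature reaction started with ATP. Before that, the kinase, substrate and cofactor mix sat 30 min with compound delivered from a […] DMSO stock. Inhibition was expressed relative to DMSO-only and enzyme-free wells.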

CDK4/CycD3 = CDK4/CycD3 (Homo sapiens, UniProt P11802); assay: Enzyme activity test; format: biochemical;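 note: values come from the source column headed CDK4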
Sequence of CDK4/CycD3 (P11802 whole entry, species assumed): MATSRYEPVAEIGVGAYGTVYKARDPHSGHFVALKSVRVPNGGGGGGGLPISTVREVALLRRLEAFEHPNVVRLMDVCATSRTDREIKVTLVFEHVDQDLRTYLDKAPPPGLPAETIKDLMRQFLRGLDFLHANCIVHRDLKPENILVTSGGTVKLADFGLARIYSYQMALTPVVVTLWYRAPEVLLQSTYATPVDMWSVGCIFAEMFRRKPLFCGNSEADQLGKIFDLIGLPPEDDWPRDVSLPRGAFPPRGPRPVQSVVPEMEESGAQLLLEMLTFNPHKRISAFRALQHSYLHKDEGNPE
Sequence of CDK4/CycD3 (P30281 whole entry partner, species assumed): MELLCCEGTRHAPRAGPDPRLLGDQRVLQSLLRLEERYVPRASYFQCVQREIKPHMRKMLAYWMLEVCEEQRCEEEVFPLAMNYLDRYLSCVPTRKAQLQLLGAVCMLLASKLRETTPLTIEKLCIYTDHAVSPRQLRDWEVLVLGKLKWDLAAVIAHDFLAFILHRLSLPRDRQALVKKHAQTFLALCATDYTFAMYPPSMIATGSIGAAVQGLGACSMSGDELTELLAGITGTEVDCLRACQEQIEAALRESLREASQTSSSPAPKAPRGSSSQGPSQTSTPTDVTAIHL
How it was run: as §1

CDK6/CycD1 = CDK6/CycD1 (Homo sapiens, UniProt Q00534); assay: Enzyme activity test; format: biochemical;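 note: values come from the source column headed CDK6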
Sequence of CDK6/CycD1 (Q00534 whole entry, species assumed): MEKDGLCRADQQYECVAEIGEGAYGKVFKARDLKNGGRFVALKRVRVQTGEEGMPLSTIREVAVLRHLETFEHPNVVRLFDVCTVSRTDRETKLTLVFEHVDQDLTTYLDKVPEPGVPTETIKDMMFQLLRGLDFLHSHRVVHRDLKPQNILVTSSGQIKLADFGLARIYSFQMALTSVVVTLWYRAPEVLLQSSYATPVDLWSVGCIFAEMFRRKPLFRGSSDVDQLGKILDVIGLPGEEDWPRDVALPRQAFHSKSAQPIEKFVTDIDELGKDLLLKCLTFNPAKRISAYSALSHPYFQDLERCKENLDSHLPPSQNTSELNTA
Sequence of CDK6/CycD1 (P24385 whole entry partner, species assumed): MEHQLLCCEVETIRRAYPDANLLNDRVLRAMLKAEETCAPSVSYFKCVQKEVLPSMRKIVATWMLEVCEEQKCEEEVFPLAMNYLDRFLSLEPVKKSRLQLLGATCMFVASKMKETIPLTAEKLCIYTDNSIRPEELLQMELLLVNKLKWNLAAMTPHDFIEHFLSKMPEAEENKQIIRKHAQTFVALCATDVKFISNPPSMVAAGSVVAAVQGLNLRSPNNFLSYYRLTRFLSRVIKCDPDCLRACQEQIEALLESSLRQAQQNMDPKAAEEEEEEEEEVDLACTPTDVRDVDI
How it was run: as §1

xMCF-7/Palbo-R cells = assay: xMCF-7/Palbo-R xenograft tumor model; format: in vivo; details: oral tube feeding twice daily for 20 days, Balb/c nude female mice
Description: To establish a xenograft tumor model, 1×10^7 xMCF-7/Palbo-R cells were suspended in 0.2 mL of a mixture of Matrigel and […] (1:1) and injected subcutaneously into 6-8 week-old Balb/c nube female mice. Tumor growth was observed periodically, and the volume (volume=½×(length×width 2)) was measured with a vernier caliper. When the tumors grew to an average volume of 100˜150 mm3, the drug was administered to mice (12 days after inoculation) in random groups according to the tumor size and their body weights. […] The drugs were administered by oral tube feeding twice daily for 20 days. Tumor volume and animal weight were measured twice a week and continued until the end of the experiment. Dosing day was defined as day 0. Measurement time points were day 0, day 3, day 7, day 10, day 14, day 17 and day 20. All mice were euthanized by cervical dislocation. At the end of the experiment, tumors were collected and weighed to calculate TGI values (see Table 4).

Row | IC50 (MCF-7-Palbo-R cells; read-out: AbsIC50) [nM] | IC50 (MCF-7-Palbo-R cells; read-out: ReIC50) [nM] | IC50 (CDK2/CycE1) [nM] | IC50 (CDK4/CycD3) [nM] | IC50 (CDK6/CycD1) [nM] | SMILES | Bottom(%) (MCF-7-Palbo-R cells) | Top(%) (MCF-7-Palbo-R cells) | TGI (xMCF-7/Palbo-R cells; 10 mg/kg) [%] | TGI (xMCF-7/Palbo-R cells; 20 mg/kg) [%]
1 | 36 | 38 | < 10 | < 10 | < 10 | C[C@@]1(O)CCC[C@H]1n1c(=O)c(OC(F)F)cc2cnc(NC3CCN(S(C)(=O)=O)CC3)nc21 [Example 3] | 6.317 | 98.857 | 64.4 | 64.6
2 | 54 | 49 |  |  |  | C[C@@]1(O)CCC[C@H]1n1c(=O)c(C(F)F)cc2cnc(NC3CCN(S(C)(=O)=O)CC3)nc21 [PF-06873600, reference compound] | 7.487 | 98.896 | 36.2 | 
